System: voltage-gated calcium current in HN2A12 cells
Assay type: cell-based, murine

Compound | inhibition of the voltage-gated calcium current | block of the calcium current (N-type part)
[Cl][Cd][Cl] [CdCl2] | completely inhibited | –
ω-conotoxin-GVIA | – | about 38%

Source: patent US20070190039A1, “Novel cell lines, and methods of preparation and use thereof” (priority 2003, published 2007)
